In ChEMBL document CHEMBL2311470, “Heterobivalent dual-target probe for targeting GRP and Y1 receptors on tumor cells” (Bioorg Med Chem Lett, 2013):
pIC50: −log10 of the molar value.

Legend:
Assay type in all cases: cell-based
[1] = target: Gastrin-releasing peptide receptor (Homo sapiens, UniProt P30550); experiment: Displacement of [125I]-Tyr4-BBN from human GRPR overexpressed in human T47D cells
[2] = target: T1, Neuropeptide Y receptor type 1 (Homo sapiens, UniProt P25929); experiment: Displacement of [125I]-NPY from Y1 receptor in human MCF7 cells in presence of 1 uM BBN
T1 sequence (P25929 whole entry): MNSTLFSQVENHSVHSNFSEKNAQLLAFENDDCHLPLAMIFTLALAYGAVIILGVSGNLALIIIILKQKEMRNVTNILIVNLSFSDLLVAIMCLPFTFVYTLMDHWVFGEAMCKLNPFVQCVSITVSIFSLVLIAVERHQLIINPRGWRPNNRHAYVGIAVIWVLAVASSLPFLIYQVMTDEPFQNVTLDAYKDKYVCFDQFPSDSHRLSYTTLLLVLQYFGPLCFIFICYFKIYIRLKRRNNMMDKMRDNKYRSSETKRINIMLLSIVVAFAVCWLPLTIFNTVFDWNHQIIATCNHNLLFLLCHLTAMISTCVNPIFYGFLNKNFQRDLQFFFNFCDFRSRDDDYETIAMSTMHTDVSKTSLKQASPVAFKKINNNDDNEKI

[3] = target: T1, Neuropeptide Y receptor type 1; experiment: Binding affinity to Y1 receptor in human SK-N-MC cells

Chain of Gastrin-releasing peptide receptor (P30550 whole entry): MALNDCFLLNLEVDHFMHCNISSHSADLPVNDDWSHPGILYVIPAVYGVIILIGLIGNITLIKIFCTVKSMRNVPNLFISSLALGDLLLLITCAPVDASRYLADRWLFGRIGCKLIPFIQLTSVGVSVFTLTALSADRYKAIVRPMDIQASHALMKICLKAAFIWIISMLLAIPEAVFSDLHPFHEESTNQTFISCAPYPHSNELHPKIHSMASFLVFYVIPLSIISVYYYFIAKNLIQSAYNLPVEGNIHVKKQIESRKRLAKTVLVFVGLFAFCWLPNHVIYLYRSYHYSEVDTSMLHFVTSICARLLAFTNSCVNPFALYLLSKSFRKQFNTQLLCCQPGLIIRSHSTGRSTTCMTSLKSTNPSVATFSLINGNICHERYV

`CC[C@H](C)[C@H](N)C(=O)N[C@@H](CC(N)=O)C(=O)N1CCC[C@H]1C(=O)N[C@@H](CCCCNC(=O)COCCOCCNC(=O)[C@H](CCCCNC(=O)COCC(=O)NCCOCCOCC(=O)NCC(=O)Nc1ccc(C(=O)N[C@@H](CCC(N)=O)C(=O)N[C@@H](Cc2c[nH]c3ccccc23)C(=O)N[C@@H](C)C(=O)N[C@H](C(=O)NCC(=O)N[C@@H](Cc2cnc[nH]2)C(=O)N[C@@H](CC(C)C)C(=O)N[C@@H](CCSC)C(N)=O)C(C)C)cc1)NC(=O)CN1CCN(CC(=O)O)CCN(CC(=O)O)CCN(CC(=O)O)CC1)C(=O)N[C@@H](Cc1ccc(O)cc1)C(=O)N[C@@H](CCCN=C(N)N)C(=O)N[C@@H](CC(C)C)C(=O)N[C@@H](CCCN=C(N)N)C(=O)N[C@@H](Cc1ccc(O)cc1)C(N)=O` gave a pIC50 [1] of 7.74, a pIC50 [2] of 7.10 and a pIC50 [3] of 7.13.
